For one assay, the target named is T1, serotonin transporter (Rattus norvegicus, UniProt P31652).
T1 construct: frontal cortical membranes prepared from male Sprague-Dawley rats; from tissue; host or cells: rat frontal cortex membranes
Put plainly: serotonin transporter affinity, 3H-paroxetine binding to frontal cortical membranes. Also on record: species or system male Sprague-Dawley rats. Here is the method: Briefly, frontal cortical membranes prepared from male Sprague-Dawley rats were incubated with ^3H-paroxetine (0.1 nM) for 60 min at 25°C. All tubes also contained either vehicle, test compound (one to eight concentrations), or a saturating concentration of fluoxetine (10 µM) to define specific binding. All reactions are terminated by the addition of ice cold Tris buffer followed by rapid filtration using a Tom Tech filtration device to separate bound from free ^3H-paroxetine.

Assay [1] addresses T2, human 5-HT1A receptor subtype (Homo sapiens, UniProt P08908).
T2 construct: expressed in transfected cells
T2 sequence (P08908 1-422): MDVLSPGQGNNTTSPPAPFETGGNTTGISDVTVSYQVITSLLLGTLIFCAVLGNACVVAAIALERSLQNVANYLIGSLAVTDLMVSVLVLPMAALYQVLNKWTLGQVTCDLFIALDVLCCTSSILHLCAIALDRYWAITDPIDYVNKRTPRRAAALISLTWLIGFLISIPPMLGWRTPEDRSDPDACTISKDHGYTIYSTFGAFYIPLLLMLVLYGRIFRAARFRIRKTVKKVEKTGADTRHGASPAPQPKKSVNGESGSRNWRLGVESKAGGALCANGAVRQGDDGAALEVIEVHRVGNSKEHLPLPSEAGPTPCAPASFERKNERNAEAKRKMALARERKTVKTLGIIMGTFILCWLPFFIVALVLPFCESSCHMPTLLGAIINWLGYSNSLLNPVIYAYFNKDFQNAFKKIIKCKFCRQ
Put plainly: 5-HT1A receptor binding assay with [3H]8-OH-DPAT on membranes of 5-HT1A.CHO cells. Conditions: for 5-HT1A (% @1000nM) / 5-HT1A (% @10nM): given instead of a Ki; for Ki: [3H]8-OH-DPAT 1.5 nM, CHO cell membranes. Here is the method:
The PCR cloning of the human 5-HT1A receptor subtype from a human genomic library has been described previously Chanda et al., Mol. Pharmacol., 43:516 (1993). A stable Chinese hamster ovary cell line expressing the human 5-HT1A receptor subtype (5-HT1A.CHO cells) was employed throughout this study. Cells were maintained in DMEM supplemented with 10% foetal calf serum, non-essential amino acids and penicillin/ streptomycin.
Cells were grown to 95-100% confluency as a monolayer before membranes were harvested for binding studies. Cells were gently scraped from the culture plates, transferred to centrifuge tubes, and washed twice by centrifugation (2000 rpm for 10 min., 4°C) in buffer (50 mM Tris; pH 7.5). The resulting pellets were aliquoted and placed at -80°C. On the day of assay, the cells were thawed on ice, and resuspended in buffer. Studies were conducted using [^3H]8-OH-DPAT as the radioligand. The binding assay was performed in 96 well microtiter plates in a final total volume of 250 µL of buffer. Competition experiments were performed by using 7 concentrations of unlabelled drug and a final ligand concentration of 1.5 nM . Non-specific binding was determined in the presence of 10 µM 5HT. Saturation analysis was conducted by using [^3H]8-OH-DPAT at concentrations ranging from 0.3-30 nM. Following a 30 minute incubation at room temperature, the reaction was terminated by the addition of ice cold buffer and rapid filtration using a M-96 Brandel Cell Harvester (Gaithersburg, MD) through a GF/B filter presoaked for 30 minutes in 0.5% polyethyleneimine.

The target of a further assay is T3, 5-HT1A cloned receptor (Homo sapiens, UniProt P08908).
T3 construct: expressed in transfected cells
T3 sequence (P08908 1-422): T2 sequence (P08908 1-422)
The assay can be described thus: [35S]-GTPγS binding assay on 5-HT1A cloned receptor membrane fragments. In kind it is biochemical. Conditions: maximum agonist response defined by excess 8-OH-DPAT. Here is the method:
The [^35S]-GTPγS binding assay was similar to that used by Lazareno and Birdsall, Br. J. Pharmacol. 109:1120 (1993). Briefly, 5-HT1A cloned receptor membrane fragments (as used for 5-HT1A receptor binding assays) were stored at -70 °C until needed. When needed, membranes were rapidly thawed, centrifuged at 40,000 x g for 10 minutes and resuspended at 4 °C for 10 minutes in assay buffer (25 mM HEPES, 3 mM MgCl2, 100 mM NaCI, 1 mM EDTA, 10 uM GDP, […] DTT, pH 8.0). These membranes were then incubated for 30 min at 30 °C with [^35S]GTPgS (1 nM) in the presence of vehicle, test compound (one to eight concentrations), or excess 8-OH-DPAT to define maximum agonist response. All reactions are terminated by the addition of ice cold Tris buffer followed by rapid filtration using a Tom Tech® filtration device to separate bound from free [^35S]GTPgS. Agonists produce an increase in the amount of [^35S]GTPgS bound whereas antagonists produce no increase in binding. Bound radioactivity was counted and analyzed as above.
(In general: GTPγS is a poorly hydrolysed GTP analogue; its binding reports G protein activation.)

Setting [2] is: 3H-paroxetine 0.1 nM, rat frontal cortical membranes, read-out: ST (Ki).

SMILES strings stand for the structures. Like-named read-outs stand apart in the source and are kept apart here.

T1 sequence (P31652 whole entry): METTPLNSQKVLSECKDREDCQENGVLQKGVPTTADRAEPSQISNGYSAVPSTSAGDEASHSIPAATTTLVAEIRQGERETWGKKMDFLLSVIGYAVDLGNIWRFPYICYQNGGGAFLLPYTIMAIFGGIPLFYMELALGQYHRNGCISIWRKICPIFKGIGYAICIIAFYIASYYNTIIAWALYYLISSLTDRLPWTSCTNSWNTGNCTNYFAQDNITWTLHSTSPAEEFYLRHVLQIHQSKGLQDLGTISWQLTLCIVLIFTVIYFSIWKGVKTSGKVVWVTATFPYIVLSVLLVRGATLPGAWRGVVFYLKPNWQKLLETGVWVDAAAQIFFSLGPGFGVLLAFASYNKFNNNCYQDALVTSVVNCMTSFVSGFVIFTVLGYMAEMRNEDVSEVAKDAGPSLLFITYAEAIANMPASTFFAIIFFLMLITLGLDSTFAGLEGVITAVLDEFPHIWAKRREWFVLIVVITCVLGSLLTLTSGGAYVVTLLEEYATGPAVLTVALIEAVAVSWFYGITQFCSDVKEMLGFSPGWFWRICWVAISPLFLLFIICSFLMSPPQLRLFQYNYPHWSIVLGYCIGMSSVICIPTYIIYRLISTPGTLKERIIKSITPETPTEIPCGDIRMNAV

Consider `Fc1cc2c(c(OCCN[C@H]3CC[C@@H](c4c[nH]c5ccc(F)cc54)CC3)c1)OCCC2` [Example 5a, [2-(6-Fluoro-chroman-8-yloxy)-ethyl]-[(1,4-cis)-4-(5-fluoro-1H -indol-3-yl)-cyclohexyl]-amine], for which, at serotonin transporter (setting [2]), the Ki amounted to 13 nM. Besides, in assay [1], the “5-HT1A (% @1000nM)” value was 49%@1000nM.
In the case of `Cn1cc([C@H]2CC[C@H](NCCOc3cc(F)cc4c3OCCC4)CC2)c2cc(C#N)ccc21` [Example 5d, 3-{(1,4-cis)-4-[2-(6-Fluoro-chroman-8-yloxy)-ethylamino]-cyclohexyl}-1-methyl-1H-indole-5-carbonitrile], the Ki at serotonin transporter (setting [2]) stood at 21.4 nM; in assay [1], 24 nM.
As to `COc1ccccc1OCCN[C@H]1CC[C@@H](c2c[nH]c3ccc(F)cc32)CC1` [Example 1a, [(cis)-4-(5-Fluoro-1H-indol-3-yl)-cyclohexyl]-[2-(2-methoxy-phenoxy)-ethyl]-amine], the Ki in assay [1] was found to be 307 nM.
As to `COc1cc(F)ccc1OCCN[C@H]1CC[C@@H](c2c[nH]c3ccc(F)cc32)CC1` [Example 9a, [(1,4-cis)-4-(5-Fluoro-1H-indol-3-yl)-cyclohexyl]-[2-(4-fluoro-2-methoxy-phenoxy)-ethyl]-amine], the inhibitory constant (Ki) at serotonin transporter (setting [2]) came to 1.76 nM. At 5-HT1A cloned receptor, this compound gave an Emax of 45%. The “5-HT1A (% @10nM)” value in assay [1] is given as 16%@10nM.
With `Fc1ccc2[nH]cc([C@H]3CC[C@@H](NCCOc4cccc5[nH]ccc45)CC3)c2c1` [Example 3a], the inhibition constant (Ki) on serotonin transporter (setting [2]) is 26 nM; in assay [1], 147 nM.
Consider `COc1ccccc1OCCNCC1CCC(c2c[nH]c3ccc(C#N)cc23)CC1` (stereo not drawn) [Example 10b, 3-(4-{[2-(Methoxy-phenoxy)-ethylamino]-methyl}-cyclohexyl)-1H-indole-5-carbonitrile], for which the Ki at serotonin transporter (setting [2]) was found to be 1.53 nM. Further, the “5-HT1A (% @10nM)” value in assay [1] came to 7%@10nM.
Turning to `Cn1cc([C@H]2CC[C@@H](NCCOc3cc(F)cc4c3OCCC4)CC2)c2cc(C#N)ccc21` [Example 5c, 3-{(1,4-cis)-4-[2-(6-Fluoro-chroman-8-yloxy)-ethylamino]-cyclohexyl}-1-methyl-1H-indole-5-carbonitrile], the inhibition constant (Ki) on serotonin transporter (setting [2]) came out at 0.53 nM. In addition, the “5-HT1A (% @1000nM)” value in assay [1] came to 47%@1000nM.
As for `COc1cc(F)ccc1OCCN[C@H]1CC[C@H](c2c[nH]c3ccc(F)cc32)CC1` [Example 9b, [(1,4-trans)-4-(5-Fluoro-1H-indol-3-yl)-cyclohexyl]-[2-(4-fluoro-2-methoxy-phenoxy)-ethyl]-amine], the values for the Ki (at serotonin transporter (setting [2]); in assay [1]) were 3.28 nM and 78.3 nM, respectively. The compound further returned an Emax at 5-HT1A cloned receptor of 39.5%.
As for `Fc1ccc2c(c1)[nH]cc2[C@H]1CC[C@@H](NCCOc2cccc3c2OCCO3)CC1` [Example 4c], the figures for the inhibition constant Ki (at serotonin transporter (setting [2]); in assay [1]) were 6.37 nM and 353 nM, respectively.
In the case of `OC1(CNCCOc2cccc3[nH]ccc23)CCC(c2c[nH]c3ccc(F)cc23)CC1` (stereo not drawn) [Example 13, (1,4)-4-(5-Fluoro-1H-indol-3-yl)-1-([2-(1H-indol-4-yloxy)-ethylamino]-methyl}-cyclohexanol], the Emax on 5-HT1A cloned receptor is 85%.
`Fc1ccc2[nH]cc([C@H]3CC[C@@H](NCCOc4cccc5c4OCCO5)CC3)c2c1` [Example 4a]: the Ki at serotonin transporter (setting [2]) was found to be 18 nM; in assay [1], 484 nM.
For `N#Cc1ccc2[nH]cc([C@H]3CC[C@@H](NCCOc4cc(F)cc5c4OCCC5)CC3)c2c1` [Example 5e, 3-{(1,4-cis)-4-[2-(6-Fluoro-chroman-8-yloxy)-ethylamino]-cyclohexyl}-1H-indole-5-carbonitrile], in that order: 2.74 nM and 385 nM.
`COc1cc(F)c(F)cc1OCCN[C@H]1CC[C@@H](c2c[nH]c3ccc(F)cc32)CC1` [Example 11a, (1,4-cis)-[2-(4,5-Difluoro-2-methoxy-phenoxy)-ethyl]-[4-(5-fluoro-1H-indol-3-yl)-cyclohexyl]-amine] came in with a Ki on serotonin transporter of 1.7 nM. In addition, the Emax at 5-HT1A cloned receptor stood at 0%. Also, in assay [1], the “5-HT1A (% @10nM)” value is recorded as 0%@10nM.
`Fc1cc(OCCN[C@H]2CC[C@@H](c3c[nH]c4ccc(F)cc43)CC2)c2occc2c1` [Example 7a, [2-(5-Fluoro-benzofuran-7-yloxy)-ethyl]-[(1,4-cis)-4-(5-fluoro-1H -indol-3-yl)-cyclohexyl]-amine] showed an inhibitory constant (Ki) in assay [1] of 146 nM.
Still for that read-out and setting: the result for `Fc1cc(OCCN[C@H]2CC[C@H](c3c[nH]c4ccc(F)cc43)CC2)c2occc2c1` [Example 7b, [2-(5-Fluoro-benzofuran-7-yloxy)-ethyl]-[(1,4-trans)-4-(5-fluoro-1H -indol-3-yl)-cyclohexyl]-amine] reads 18.8 nM.
As to `N#Cc1ccc2[nH]cc([C@H]3CC[C@H](NCCOc4cc(F)cc5c4OCC5)CC3)c2c1` [Example 6b], the inhibitory constant (Ki) on serotonin transporter (setting [2]) came to 1.53 nM; in assay [1], 23.5 nM.
For `COc1cc(F)c(F)cc1OCCN[C@H]1CC[C@H](c2c[nH]c3ccc(F)cc32)CC1` [Example 11b, (1,4-trans)-[2-(4,5-Difluoro-2-methoxy-phenoxy)-ethyl]-[4-(5-fluoro-1H-indol-3-yl)-cyclohexyl]-amine], the figures for the inhibitory constant (Ki) (on serotonin transporter; in assay [1]) were 0.7 nM and 24.9 nM, respectively. The compound also showed an Emax at 5-HT1A cloned receptor of 0%.
Regarding `Fc1ccc2c(c1)[nH]cc2[C@H]1CC[C@H](NCCOc2cccc3c2OCCO3)CC1` [Example 4d], the inhibitory constant (Ki) stood at 0.21 nM at serotonin transporter (setting [2]) and 16.7 nM in assay [1]. Besides, the maximal response (Emax) at 5-HT1A cloned receptor was determined as 74.8%.
As to `COc1ccccc1OCCN[C@H]1CC[C@H](c2c[nH]c3ccc(F)cc32)CC1` [Example 1b, [(trans)-4-(5-Fluoro-1H-indol-3-yl)-cyclohexyl]-[2-(2-methoxy-phenoxy)-ethyl]-amine], the Ki in assay [1] came to 22.4 nM.
`N#Cc1ccc2[nH]cc([C@H]3CC[C@@H](NCCOc4cc(F)cc5c4OCC5)CC3)c2c1` [Example 6a]: on serotonin transporter (setting [2]), the Ki turned out to be 1.07 nM. Further, the “5-HT1A (% @1000nM)” value in assay [1] worked out at 49%@1000nM.
In the case of `COc1ccc(F)cc1OCCN[C@H]1CC[C@@H](c2c[nH]c3cc(F)ccc32)CC1` [Example 2a, [(1,4-cis)-4-(6-Fluoro-1H-indol-3-yl)-cyclohexyl]-[2-(5-fluoro-2-methoxy-phenoxy)-ethyl]-amine], the values for the Ki (on serotonin transporter (setting [2]); in assay [1]) were 1.19 nM and 996 nM, respectively.
Compound `COc1cc(S(C)(=O)=O)c(F)cc1OCCN[C@H]1CC[C@H](c2c[nH]c3ccc(F)cc32)CC1` [Example 12, [(1,4-trans)-4-(5-Fluoro-1H-indol-3-yl)-cyclohexyl]-[2-(5-fluoro-4-methanesulfonyl-2-methoxy-phenoxy)-ethyl]-amine] came in with a Ki at serotonin transporter of 0.47 nM. The maximal response (Emax) on 5-HT1A cloned receptor came to 0%. Further, the “5-HT1A (% @10nM)” value in assay [1] is on record as 0%@10nM.
Consider `Fc1ccc2[nH]cc([C@H]3CC[C@H](NCCOc4cc(Cl)cc5[nH]cnc45)CC3)c2c1` [Example 8a, [2-(6-Chloro-1H-benzoimidazol-4-yloxy)-ethyl]-[(1,4-trans)-4-(5-fluoro-1H-indol-3-yl)-cyclohexyl]-amine], for which the inhibition constant Ki was determined as 1.6 nM at serotonin transporter (setting [2]) and 12.7 nM in assay [1]. At 5-HT1A cloned receptor, this compound came in with a maximum response (Emax) of 0%.

What is called Ki is the equilibrium dissociation constant of an inhibitor or competing ligand from its target. The term Emax denotes the greatest response seen or fitted, relative to the assay's reference.

These data come from patent EP1068184B1, “N-ARYLOXYETHYLAMINE DERIVATIVES FOR THE TREATMENT OF DEPRESSION” (Wyeth, priority 1998, dated 1999).
